Here are results for two compounds from patent US20090318530A1, “PHARMACEUTICAL COMPOSITIONS COMPRISING NK1 RECEPTOR ANTAGONISTS AND SODIUM CHANNEL BLOCKERS” (GLAXO GROUP LIMITED, priority 2007, published 2009).

Data set [1] can be described thus: Blood and brain drug concentrations in satellite animals. It is filed as in vivo. The note with it: rat; for concentration at 30 min / concentration at 60 min: CD; for concentration at 30 min: subcutaneous; for concentration at 60 min: intraperitoneal. Here is the method: […] Blood and brain samples were taken for analysis of the drug concentrations in these compartments.
All doses were calculated as base. ENa8 was dosed via the subcutaneous (s.c.) route at 1 ml/kg in a 2% v/v DMSO/saline vehicle 30 minutes prior to test. Compound ENK6 was dosed with via the intraperitoneal (i.p.) route 60 minutes before the test. ENK6 was dissolved in saline.

The subject of data set [2] is threshold for tonic hindlimb extensor seizures. The experiment in a line: Maximal electroshock seizure threshold (MEST) test, 'up and down' method. Format: in vivo, rat. The following applies: male CD rats. Here is the method:
This work was conducted in compliance with the Home Office Guidance on the operation of the Animals (Scientific Procedures) Act 1986 and GlaxoSmithKline ethical standards. Male CD rats (100-145 g) were supplied by Charles River, UK. Animals were group housed (6 animal per cage) with free access to food (Standard rodent chow; Harlan, UK) and water under a 12 h light/dark cycle (lights on at 0700 h). A period of at least one week between arrival at GSK and the study was allowed in all cases.
Animals were administered a test compound at the appropriate dose, route and pre-treatment time and returned to their home cage. Testing occurred in a separate room from that used for housing. […] Seizure threshold was determined using the ‘up and down’ method of Kimball et al. (1957)(Kimball A W, Burnett W T Jr, Doherty D G. (1957) Radiat Res. 7(1):1-12). […]
All doses were calculated as base. […]
Induction of seizure is measured as an all-or-nothing effect scored as either present (+) or absent (0) for each animal. […] Drug effects were calculated as the % change in CC50. Significant differences between drug-treated animals and appropriate vehicle treated groups were assessed according to the methods of Litchfield and Wilcoxon (1949). The statistical significance of differences between (5R)-5-(4-{[(2-fluorophenyl)methyl]oxy}phenyl)-L-prolinamide or in combination with ENK6 was assessed using a Student's t test.

Like-named read-outs stand apart in the source and are kept apart here.

Consider `Cl.NC(=O)[C@@H]1CC[C@H](c2ccc(OCc3ccccc3F)cc2)N1` [ENa8, (5R)-5-(4-{[(2-fluorophenyl)methyl}oxy]phenyl)-L-prolinamide hydrochloride], for which the concentration at 30 min was 1170 ng/g in data set [1] (brain, 1 mg/kg, ENa8 1 mg/kg, ENK6 veh, rat satellite animals n=2, read-out: Brain ENa8); 2300 ng/g in data set [1] (brain, 3 mg/kg, ENa8 3 mg/kg, ENK6 veh, rat satellite animals n=2, read-out: Brain ENa8); 1340 ng/g in data set [1] (brain, ENa8 1 mg/kg + ENK6 30 mg/kg, rat satellite animals n=2, read-out: Brain ENa8); 2620 ng/g in data set [1] (brain, ENa8 3 mg/kg + ENK6 30 mg/kg, rat satellite animals n=2, read-out: Brain ENa8); 188 ng/mL in data set [1] (whole blood, 1 mg/kg, ENa8 1 mg/kg, ENK6 veh, rat satellite animals n=2, read-out: Blood ENa8); 349 ng/mL in data set [1] (whole blood, 3 mg/kg, ENa8 3 mg/kg, ENK6 veh, rat satellite animals n=2, read-out: Blood ENa8). Besides, the concentration at 30 min in data set [1] (whole blood, ENa8 1 mg/kg + ENK6 30 mg/kg, rat satellite animals n=2, read-out: Blood ENa8) came out at 246 ng/mL; in data set [1] (whole blood, ENa8 3 mg/kg + ENK6 30 mg/kg, rat satellite animals n=2, read-out: Blood ENa8), 456 ng/mL. Besides, the “blood or brain concentration of ENa8 in the presence of ENK6” value in data set [1] (ENa8 1 or 3 mg/kg s.c. with ENK6 30 mg/kg i.p. versus ENa8 alone) was “No increase”. Further, the “seizure threshold in the MEST” value in data set [2] (ENa8 3 mg/kg s.c. alone, 30 min prior to test) is “small, but significant increase”.
For `COc1ccc(-n2nnnc2C(F)(F)F)cc1CN[C@H]1CCCN[C@H]1c1ccccc1.Cl.Cl` [ENK6, [2-Methoxy-5-(5-trifluoromethyl-tetrazol-1-yl)-benzyl]-([2S,3S]-2-phenyl-piperidin-3-yl)-amine dihydrochloride], the concentration at 60 min in data set [1] (brain, 30 mg/kg, ENK6 30 mg/kg, ENa8 veh, rat satellite animal n=1, read-out: Brain ENK6) was 1510 ng/g; in data set [1] (brain, ENK6 30 mg/kg + ENa8 1 mg/kg, rat satellite animals n=2, read-out: Brain ENK6), 1160 ng/g; in data set [1] (brain, ENK6 30 mg/kg + ENa8 3 mg/kg, rat satellite animals n=2, read-out: Brain ENK6), 881 ng/g; in data set [1] (whole blood, 30 mg/kg, ENK6 30 mg/kg, ENa8 veh, rat satellite animal n=1, read-out: Blood ENK6), 631 ng/mL; in data set [1] (whole blood, ENK6 30 mg/kg + ENa8 1 mg/kg, rat satellite animals n=2, read-out: Blood ENK6), 471 ng/mL; in data set [1] (whole blood, ENK6 30 mg/kg + ENa8 3 mg/kg, rat satellite animals n=2, read-out: Blood ENK6), 414 ng/mL. The “seizure threshold in the MEST” value in data set [2] (ENK6 30 mg/kg i.p. alone, 60 min before test) was “no effect”.
